In publication PMC10011588, “Conformational transitions and allosteric modulation in a heteromeric glycine receptor” (Nature Communications, 2023):

How the values were obtained:
[1] = target: T1, α1βB glycine receptor (ZF-α1GlyR subunit) (Danio rerio, UniProt O93430+Q6DC22); design: gene glra1
T1 sequence (O93430 25-444): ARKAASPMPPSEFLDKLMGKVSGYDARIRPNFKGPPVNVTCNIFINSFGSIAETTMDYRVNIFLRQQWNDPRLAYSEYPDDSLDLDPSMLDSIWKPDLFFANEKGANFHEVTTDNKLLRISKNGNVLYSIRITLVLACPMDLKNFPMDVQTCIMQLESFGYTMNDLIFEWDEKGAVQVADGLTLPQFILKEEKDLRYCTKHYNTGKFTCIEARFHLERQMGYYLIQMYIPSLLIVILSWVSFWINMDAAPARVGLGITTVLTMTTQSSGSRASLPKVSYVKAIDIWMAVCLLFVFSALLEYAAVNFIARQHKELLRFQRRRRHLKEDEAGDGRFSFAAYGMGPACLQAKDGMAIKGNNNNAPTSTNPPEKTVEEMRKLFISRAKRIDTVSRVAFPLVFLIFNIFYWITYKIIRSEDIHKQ
T1 sequence (Q6DC22 23-494): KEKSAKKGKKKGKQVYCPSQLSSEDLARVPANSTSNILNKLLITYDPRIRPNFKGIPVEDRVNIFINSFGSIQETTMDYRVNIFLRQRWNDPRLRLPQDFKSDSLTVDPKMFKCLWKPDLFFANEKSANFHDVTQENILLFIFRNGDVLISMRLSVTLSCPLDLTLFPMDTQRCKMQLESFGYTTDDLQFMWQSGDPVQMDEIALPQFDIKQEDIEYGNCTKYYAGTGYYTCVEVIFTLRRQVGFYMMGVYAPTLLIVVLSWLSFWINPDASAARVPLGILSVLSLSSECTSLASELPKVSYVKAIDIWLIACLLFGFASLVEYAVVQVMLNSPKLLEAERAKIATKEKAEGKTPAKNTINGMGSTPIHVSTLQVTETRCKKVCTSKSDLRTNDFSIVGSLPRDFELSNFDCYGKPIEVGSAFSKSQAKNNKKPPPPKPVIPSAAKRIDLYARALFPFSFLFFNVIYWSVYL

[2] = target: T1, α1βB glycine receptor (ZF-α1GlyR subunit); experiment: cryo-EM structure, […] Å ([…] glycine); EC50 from whole-cell currents in HEK […] T cells (homomeric α[…]); assay type: cell-based; design: gene glra1; full-length α1GlyR (NP_571477.1) with C-terminal thrombin site and 8xHis tag, 4α:1β heteropentamer; with βBGlyR (glrbb, NP_001003587.1); rat gephyrin E domain co-purified (not resolved)
Source text: The carboxyl oxygens form hydrogen bonds with αS153 (βS173) on Loop E

[3] = target: T2, zebrafish glycine receptor βB subunit (ZF-βBGlyR), full length (zebrafish, UniProt Q6DC22 1-494, N-glycans at N54 and N241); experiment: cryo-EM structure; αβGlyR-Geph-E sample co-expressed in Sf9 and co-purified in DDM, vitrified on graphene-oxide grids with 100 µM strychnine, 1 mM glycine, or 1 mM glycine and 20 µM ivermectin; no fiduciary marker; conditions: partners not purified
T2 construct: glycine receptor βB subunit, zebrafish, NCBI NP_001003587.1, codon-optimised full-length gene; One copy stands in the αβGlyR heteropentamer (4α:1β); also called βGlyR; GlyRβB; source: Sf9 (ExpiSf9) cells, baculovirus (pFastBacDual, polyhedrin promoter), co-expressed with α1GlyR and Geph-E
T2 sequence (looked up): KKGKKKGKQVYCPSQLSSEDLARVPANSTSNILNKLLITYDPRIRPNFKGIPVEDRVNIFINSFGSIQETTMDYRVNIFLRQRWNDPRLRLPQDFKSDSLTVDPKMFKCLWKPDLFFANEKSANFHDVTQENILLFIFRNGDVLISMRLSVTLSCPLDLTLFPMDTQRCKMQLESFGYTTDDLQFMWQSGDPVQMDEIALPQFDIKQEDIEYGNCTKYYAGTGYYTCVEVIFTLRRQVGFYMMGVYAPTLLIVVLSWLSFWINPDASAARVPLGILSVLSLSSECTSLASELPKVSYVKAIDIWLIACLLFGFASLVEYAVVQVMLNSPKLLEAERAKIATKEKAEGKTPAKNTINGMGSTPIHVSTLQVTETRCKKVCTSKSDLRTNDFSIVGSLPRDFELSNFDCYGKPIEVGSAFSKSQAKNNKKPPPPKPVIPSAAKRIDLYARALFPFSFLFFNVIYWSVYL

O=C1C[C@@H]2OCC=C3CN4CC[C@]56c7ccccc7N1[C@H]5[C@H]2[C@H]3C[C@H]46 [strychnine]
cryo-EM structure, 2.97 Å (100 μM strychnine) [1]: Strychnine density is well-defined in αβGlyR-Stry and is essentially in the same orientation across all five subunits

NCC(=O)O [glycine]
EC50 [2]: 63 ± 13 µM

B1: zebrafish glycine receptor α1 subunit (ZF-α1GlyR), full length (receptor, UniProt O93430 25-444, looked up)
chain: T1 sequence (O93430 25-444)
modifications: N-glycan at N62
notes: glycine receptor α1 subunit, zebrafish, NCBI NP_571477.1, codon-optimised full-length gene; Four copies stand in the αβGlyR heteropentamer (4α:1β); The full-length gene was expressed; also called αGlyR; GlyRα1; source: Sf9 (ExpiSf9) cells, baculovirus (pFastBacDual, p10 promoter), co-expressed with βBGlyR and Geph-E; not shown: 8x His (after a thrombin site LVPRGS), C-terminal, kept
stoichiometry N [3]: 4 α per β
